Where a name gives a salt, the structure may show the parent alone. Read-outs that look alike come from different tables or passages of the source. Marks after values point to notes of the source that are not given here.
Tests used:
[1] = system: LPS-induced peritonitis in mice; test: LPS-induced peritonitis in mice, volume of exudate; assay type: in vivo
Experimental: Activity was studies using the methods listed in “Methodical recommendations on experimental (preclinical) research of new nonsteroidal anti-inflammatory drugs” for new compounds screening, in animal models of peritonitis induced by lipopolysaccharide (LPS) and carrageenan.
Anti-exudative action was studied in male mice with body mice 22.0-23.0 g. Peritonitis was induced by intraperitoneal administration of lipopolysaccharide (LPS), produced from Escherichia coli (Sigma) 1.0 mg/kg, as described in [6]: after 4 hours the animals were sacrificed by CO2, their peritoneal cavity opened and the volume of exudate was measured in ml. Studied compounds and drugs of comparison were administered per os one hour before LPS, control group was composed of mice receiving 0.3 ml of saline before LPS administration. Each group had 10 animals.
(§1) The results were processed using variation statistics methods for biological research (mean standard error, means were calculated using Student's t-distribution).

mice stomach [2] = test: Irritant action on mice stomach, single administration of 500 mg/kg; assay type: in vivo
Experimental: Ulcerogenic effect of compound 2 was studied in accordance with Methodical recommendations on experimental (preclinical) research of new nonsteroidal anti-inflammatory drugs. Studies were performed according to the following scheme: • 1. Study of the compounds' irritant action on mice stomach using doses five-times higher than pharmacological dose (single administration). • 2. Study of the compounds' ulcerogenic action using pharmaceutical dose during 7 days of administration. • 3. Aggravation of ulcerogenic effects of studied compounds by 0.6H hydrochloric acid. • 4. Aggravation of ulcerogenic effects of studied compounds by the known NSAIDs (indomethacin). 1. Study of Irritant Action of Compound 2
Male mice with body mass 23-24 g were deprived of food for 24 hours, water access was not limited. Number of animals in a group-10.
Compound 2 in 500 mg/kg dose was administered by a tube into the stomach, after 6 hours the animals were sacrificed, their stomachs extracted, number of ulcers counted and ulcerogenic index calculated. Ulcerogenic effect was assessed using 4-point scale: 0—no damage; 0.5—hyperemia; 1—insignificant damage (1 or 2 small bleedings); 2—multiple damage (erosions, small bleedings); 3—significant and multiple damage (erosions, bleedings); 4—severe damage, affecting all gastric mucosa (massive bleedings, erosions, perforations).

mice stomach [3] = test: Aggravation of ulcerogenic effect by indomethacin; assay type: in vivo
Experimental: (§2) Studies were performed according to the following scheme: • 1. […] Study of the compounds' ulcerogenic action using pharmaceutical dose during 7 days of administration. • 3. Aggravation of ulcerogenic effects of studied compounds by 0.6H hydrochloric acid. • 4. Aggravation of ulcerogenic effects of studied compounds by the known NSAIDs (indomethacin). 1.
(§3) Ulcerogenic effect was assessed using 4-point scale: 0—no damage; 0.5—hyperemia; 1—insignificant damage (1 or 2 small bleedings); 2—multiple damage (erosions, small bleedings); 3—significant and multiple damage (erosions, bleedings); 4—severe damage, affecting all gastric mucosa (massive bleedings, erosions, perforations).
(§4) Male mice with body mass 23-24 g were deprived of food for 24 hours, water access was not limited.
Drugs of comparison: voltaren—50 mg/kg and aminoguanidine—200 mg/kg. Each test group had 10 animals.

[4] = system: LPS-induced peritonitis in rats; test: LPS-induced peritonitis in rats, volume of exudate; assay type: in vivo; details: for Anti-inflammatory activity in LPS-induced peritonitis model, % of control: rats
Experimental: Anti-exudative action was studied in male rate with body mass 170.0-180.0 g. Peritonitis was induced by intraperitoneal administration of lipopolysaccharide (LPS), produced from Escherichia coli (Sigma)—1.0 mg/kg as described in [6]: after 4 hours the animals were sacrificed by CO2, their peritoneal cavity opened and the volume of exudate was measured in ml. Studied compounds and drugs of comparison were administered per os one hour before LPS, control group was composed of rats receiving 0.3 ml of saline before LPS administration. Each group had 7 animals.
as §1

[5] = system: adjuvant arthritis in Wistar rats; test: Chronic arthritis (adjuvant arthritis) model in Wistar rats; assay type: in vivo
Experimental: Compound of formula 2 was tested in chronic arthritis (adjuvant arthritis) model in Wistar rats.
In the same dose the compound has shown a potent (better than indomethacin) chondroprotective action towards interphalangeal joints of affected leg (x-ray (röntgenography) data). In intragastric administration (analog of per os) the compound has shown systemic anti-inflammatory action (reduction of swelling, leukocytosis, TNFα level, chondroprotective action) that may be associated with the inhibition of delayed type hypersensitivity.

[6] = Assessment of other types of pharmaceutical activity
From the text: All discovered types of pharmacological activity of compound 2 are present not only in its hydrochloride form, but also in its other pharmaceutically acceptable salts (e.g. Na, K, Ca, Mg), and also in complex combinations with pharmaceutically acceptable complexones (e.g. with glycyrrhizic acid).

mice stomach [7] = test: Aggravation of ulcerogenic effects by 0.6H hydrochloric acid; assay type: in vivo
Experimental: as §2, §3, §4
(§5) Drugs of comparison: indomethacin 20 mg/kg, voltaren—50 mg/kg and aminoguanidine—200 mg/kg. Each test group had 10 animals.

[8] = Study of the compound's toxicity: mice mortality, LD50 by Karber method; assay type: in vivo; details: male, mouse, in vivo; oral; stated as 'may exceed'; read-out: LD50 in oral administration
Experimental: (§6) Study of the compound of formula 2 was conducted in vivo. […] To determine the doses of the compound that would need to be studied, it is first necessary to study its toxicity. Studies were carried out in male mice with body mass 18-20 g. Compound 2 was administered as a water suspension. Each dose was administered to 5 animals. Behavior and overall condition of animals were observed during 5 days. LD50 (the dose causing the death of 50% of animals) was calculated using Karber method.

male mice = test: as above; assay type: in vivo; details: for Animal mortality: Alive / Animal mortality: Dead: 5 mice per group, 5 days observation
Experimental: as §6

[9] = system: carrageenan-induced peritonitis in mice; test: Carrageenan-induced peritonitis in mice, volume of exudate; assay type: in vivo
Experimental: Research was carried out by a method described in [5]. Experiments were performed using male mice with body mass 23-24 g, in groups of 10 animals. […] The results were processed using variation statistics methods for biological research (mean standard error, means were calculated using Student's t-distribution).

mice stomach [10] = assay type: in vivo
Experimental: as §2, §3
After 7 days the animals were sacrificed by CO2, their stomachs extracted and the number of ulcers counted.
as §5

[11] = 50 mg/kg dose, compared with indomethacin

Structure (SMILES): N=C(N)N/N=C\c1[nH]c2ccccc2c1Nc1ccc([N+](=O)[O-])cc1 [Compound 2, N-[3-(4-nitrophenylamino)-indole-2-ilmethylene]aminoguanidine hydrochloride]
- Anti-inflammatory activity in LPS-induced peritonitis model, % of control ([1]; 25.0 mg/kg per os): 2.2 % of control
- Anti-inflammatory activity in LPS-induced peritonitis model, % of control ([1]; 50.0 mg/kg per os): 46.7* % of control
- Anti-inflammatory activity in LPS-induced peritonitis model, % of control ([1]; 100.0 mg/kg per os): 88.9* % of control
- Anti-inflammatory activity in LPS-induced peritonitis model, % of control ([1]; 200.0 mg/kg per os): 100.0* % of control
- Average ulcerogenic index (4-point scale) of single administration of the compounds in 500.0 mg/kg dose (mice stomach [2]; mice fasted 24 h, into the stomach, sacrificed after 6 hours): 0
- Irritant effect on gastric mucosa (mice stomach [2]; single administration of 500 mg/kg dose): does not have irritant effect on gastric mucosa
- Aggravation of ulceration when combined with indomethacin (mice stomach [3]; indomethacin in 20 mg/kg dose): does not aggravate ulceration
- Average ulcerogenic index (4-point scale) of combining the studied compounds with indomethacin (mice stomach [3]; mice, compound 2 100 mg/kg, voltaren 50 mg/kg, aminoguanidine 200 mg/kg, 1 hour before indomethacin 20 mg/kg, after 5 hours): 2.2
- ED50 ([4]; Rattus norvegicus, po): 48 ± 4.5 mg/kg
- Anti-inflammatory activity in LPS-induced peritonitis model, % of control ([4]; 10.0 mg/kg per os): 2.0 % of control
- Anti-inflammatory activity in LPS-induced peritonitis model, % of control ([4]; 25.0 mg/kg per os): 26.0* % of control
- Anti-inflammatory activity in LPS-induced peritonitis model, % of control ([4]; 50.0 mg/kg per os): 58.0* % of control
- Anti-inflammatory activity in LPS-induced peritonitis model, % of control ([4]; 75.0 mg/kg per os): 78.0* % of control
- Anti-inflammatory activity in LPS-induced peritonitis model, % of control ([4]; 100.0 mg/kg per os): 100.0* % of control
- Anti-inflammatory activity compared with voltaren and aminoguanidine ([4]; summary of tables 2 and 3 (mice and rat peritonitis models)): somewhat inferior to voltaren in used models, but is better than aminoguanidine
- Chondroprotective effect (cartilage width) ([5]; 50 mg/kg dose): chondroprotective effect of compound 2 was noted
- Degeneration of articular carriage of hock ([5]; 50 mg/kg dose): partially prevented the degeneration of articular carriage of hock
- Development of joint sclerosis and degradation of hind leg interphalangeal joints (x-ray) [5, 11]: most effective in inhibiting the development of joint sclerosis and degradation of hind leg interphalangeal joints, better than the drug of comparison
- Level of TNFα in blood plasma [5, 11]: reduced the level of TNFα as good as the drug of comparison
- Severity of hind leg swelling ([5]; 50 and 75 mg/kg doses): reduced the severity of hind leg swelling
- Development of delayed type hypersensitivity ([5]; adjuvant arthritis, Wistar rats): inhibiting the development of delayed type hypersensitivity
- Leukocytosis ([5]; adjuvant arthritis, Wistar rats, intragastric): reducing leukocytosis
- Other types of pharmaceutical activity [6]: possesses anti-allergic, antihypoxic and analgesic activity
- Aggravation of ulceration when combined with 0.6H hydrochloric acid (mice stomach [7]): does not aggravate ulceration
- Average ulcerogenic index (4-point scale) of combining the studied compounds with hydrochloric acid (mice stomach [7]; compound 2 100 mg/kg, indomethacin 20 mg/kg, voltaren 50 mg/kg, aminoguanidine 200 mg/kg, 1 hour before 0.6H HCl 5 ml/kg, after 4 hours): 0.15
- LD50 at 5 days [8]: > 5000 mg/kg
- Note (behavior) (male mice; 500.0 mg/kg intravenous): Normal behavior
- Animal mortality: Alive (male mice; 500.0 mg/kg intravenous): 5
- Animal mortality: Dead (male mice; 500.0 mg/kg intravenous): 0
- Note (behavior) (male mice; 1000.0 mg/kg intravenous): Normal behavior
- Animal mortality: Alive (male mice; 1000.0 mg/kg intravenous): 5
- Animal mortality: Dead (male mice; 1000.0 mg/kg intravenous): 0
- Note (behavior) (male mice; 1500.0 mg/kg intravenous): Normal behavior
- Animal mortality: Alive (male mice; 1500.0 mg/kg intravenous): 5
- Animal mortality: Dead (male mice; 1500.0 mg/kg intravenous): 0
- Note (behavior) (male mice; 2000.0 mg/kg intravenous): Animals depressed
- Animal mortality: Alive (male mice; 2000.0 mg/kg intravenous): 4
- Animal mortality: Dead (male mice; 2000.0 mg/kg intravenous): 1
- Class of danger as specified by GOST 12.1.007-76 (male mice; after intravenous administration up to 2000.0 mg/kg): third class of danger
- Anti-inflammatory activity in carrageenan-induced peritonitis model, % of control ([9]; 25.0 mg/kg per os): 3.9 % of control
- Anti-inflammatory activity in carrageenan-induced peritonitis model, % of control ([9]; 50.0 mg/kg per os): 21.6* % of control
- Anti-inflammatory activity in carrageenan-induced peritonitis model, % of control ([9]; 100.0 mg/kg per os): 45.1* % of control
- Anti-inflammatory activity in carrageenan-induced peritonitis model, % of control ([9]; 200.0 mg/kg per os): 84.3* % of control
- Irritant effect on gastric mucosa (mice stomach [10]; chronic use of 200 mg/kg doses): does not have irritant effect on gastric mucosa
- Average ulcerogenic index (4-point scale) of chronic administration of pharmacological dose (mice stomach [10]; mice, per os 7 days, compound 2 200 mg/kg, indomethacin 20 mg/kg, voltaren 50 mg/kg, aminoguanidine 200 mg/kg): 0

— patent US8642784B2, “Biologically active compound N-[3-(4-nitrophenylamino)-indole-2-ilmethylene]aminoguanidine hydrochloride with anti-inflammatory activity” (priority 2010, dated 2014)
